{"source": "patent US20210213093A1", "about": "“COMPOSITIONS AND METHODS FOR ACTIVATING CELLULAR SIGNALING PATHWAYS” (LifeVantage Corporation, priority 2020, published 2021)", "origin": "cited, not measured here", "conditions": "background statement, no test described", "data": [{"compound": "O=C(O)CCCC[C@@H]1CCSS1", "note": "(racemic) [Lipoic acid, lipoic acid]", "values": [{"measurement": "antioxidant power relative to vitamin E and vitamin C combined", "value": 400, "unit": "times"}]}]}
